Where two headings read alike, the source gives them in different places.
Biological target: T1, Kinase A and Spo0F (Bacillus subtilis, UniProt P16497)
T1 construct: made in house; host or cells: recombinant E. coli
T1 sequence (P16497 1-606): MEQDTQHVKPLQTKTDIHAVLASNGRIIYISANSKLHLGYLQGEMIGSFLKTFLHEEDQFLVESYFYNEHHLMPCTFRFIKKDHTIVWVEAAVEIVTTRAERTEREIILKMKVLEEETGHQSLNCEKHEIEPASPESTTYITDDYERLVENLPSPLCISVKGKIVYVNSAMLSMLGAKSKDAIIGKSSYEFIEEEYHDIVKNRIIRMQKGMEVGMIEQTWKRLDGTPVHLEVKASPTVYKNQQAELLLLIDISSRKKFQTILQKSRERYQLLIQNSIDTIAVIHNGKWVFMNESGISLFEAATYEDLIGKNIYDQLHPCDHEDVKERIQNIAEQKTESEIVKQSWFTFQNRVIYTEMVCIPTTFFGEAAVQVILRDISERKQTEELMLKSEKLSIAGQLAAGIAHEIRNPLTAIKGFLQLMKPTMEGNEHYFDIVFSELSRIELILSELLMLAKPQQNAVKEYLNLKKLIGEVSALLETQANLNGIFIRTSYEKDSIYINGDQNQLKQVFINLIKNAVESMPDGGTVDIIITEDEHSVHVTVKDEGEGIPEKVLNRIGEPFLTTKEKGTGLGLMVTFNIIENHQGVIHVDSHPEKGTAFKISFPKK
Assay: Autophosphorylation of Kinase A and Transphosphorylation of Spo0F Assay (HPK in vitro assay)
Type: biochemical
Experimental: Autophosphorylation of Kinase A and Transphosphorylation of Spo0F Assay
To study the effect of the compounds of the present invention on the signal transduction process in bacteria, the inhibiting effect of the compounds on the sporulation operon proteins Kinase A and Spo0F was examined. Specifically, the inhibition of autophosphorylation of Kinase A and the transphosphorylation of Spo0F was determined in the following assays. The Spo0F response regulator is the primary substrate for phosphorylation by the protein kinase, Kin A, involved in the sporulation process in bacteria. See D. Burbulys, K. A. Trach, J. A. Hoch, Cell, 64, 545-552 (1991). Spo0F and KinA were prepared from recombinant E. coli overexpressing the proteins (J. Cavanagh et al, Amino Acids, 6, 131-140 (1994) and references therein).
The following stock reagents were either prepared and used promptly or stored at the indicated temperature:
8×Salts: 2 M KCl (5 mL), 1 M MgCl2 (800 mL), 1 M CaCl2 (100 mL), 10 mg/mL phenylmethylsulfonyl fluoride (200 mL), 1 M dithioreitol (50 mL), 0.25 M Na2 EDTA (32 mL) and H2 O 3.82 mL (-20° C.)
5×Loading Dye: 0.5M TRIS-HCl, pH 6.8 (7.5 mL), 10% SDS (2 mL) 0.1% bromophenol blue (0.5 mL), 100% glycerol (3 mL) and 12.5 M 2-mercaptoethanol (0.3 mL)
1-1.3 mg/mL KinA: 15 mM TRIS-HCl, pH 8.0, 6 mM KCl; 4 mM 2-mercaptoethanol;40% glycerol (-20° C.)
1 mg/mL Spo0F: 17.5 mM TRIS-HCl, pH 8.0; 0.7 mM KCl; 0.7 mM MgCl2; 0.7 mM CaCl2; 5 mM 2-mercaptoethanol; 30% glycerol (-20° C.)
5% Stacking Gel: 40% 29:1 acrylamide:bis acrylamide (1.25 mL), 0.5 M TRIS-HCl, pH 6.8 (2.5 mL), 10% SDS (0.1 mL), D-H2 O (6.15 mL) 10% ammonium persulfate (100 mL) and TEMED (25 mL)
SDS Running Buffer: TRIS-BASE (3.02 g), glycine (14.4 g), SDS (1 g), D-H2 O (to 1 L)
The reaction mixture was prepared from 8×Salts (87 μL), 1M TRIS, pH 8 (118 μL), 50% glycerol (63 μL), Spo0F (14.1 μL) and KinA (7.0 μL). Microcentrifuge tubes were charged with the reaction mixture (18.5 μL) and a 1.0 mM solution of the test compound in 5% DMSO (18.5 μL), and incubated for 15 min on ice. 100 mM ATP solution (3.0 μl, containing 625 μCi [^32 P]ATP) was added, and the mixture left for 10 minutes at room temperature. The reaction was quenched with 5× loading dye (10 μL per tube) and the samples were loaded on a prepared 5% Stacking Gel, or stored on dry ice until ready for use. The prepared wells were filled with SDS Running Buffer, samples were loaded into the wells, and 80 volts were applied to the gel until the dye front reached the bottom of the stacking gel. The voltage was then increased to 250 volts until electrophoresis was complete. Radioactive bands in the gel corresponding to phosphorylated KinA and Spo0F were imaged and quantitated with a phosphoimager.
If either enzyme was inhibited (as evidenced by the absence of labelled protein in the developed gel), an IC50 was calculated by running the assay with a range of inhibitor concentrations from 1 to 500 μM. After electrophoresis of the reaction mixtures, percent inhibition was determined by measuring the concentration of radioactive phosphorus with a phosphoimager and calculating the values using a software program (BioRad Molecular Analyst).

[1] = Table 2, KinA/Spo0F phosphorylation, in µM
[2] = Table 1, KinA/Spo0F phosphorylation, in µM
[3] = Table 6, KinA/Spo0F phosphorylation, in µM
[4] = Table 4, KinA/Spo0F phosphorylation, read-out: IC50
[5] = Table 3, KinA/Spo0F phosphorylation, read-out: IC50
[6] = Table 1, KinA/Spo0F phosphorylation, read-out: IC50
[7] = Table 5, KinA/Spo0F phosphorylation, in µM

## CCOC(=O)c1ccc(Oc2ccc(-c3nc4ccc(C(=N)N)cc4[nH]3)cc2)cc1 [Example 52]
[1]
  IC50: 56

## CCN(CC)c1ccc(-c2nc3ccc(C(=N)N)cc3[nH]2)c(O)c1 [Example 38]
[2]
  IC50: 51

## N=C(N)c1ccc2nc(-c3ccc(Oc4ccc([N+](=O)[O-])cc4)cc3)[nH]c2c1 [Example 50]
[1]
  IC50: 31.7

## N=C(N)c1ccc2nc(-c3cc(Cl)cc(Cl)c3O)[nH]c2c1 [Example 36]
[2]
  IC50: 155

## CC1(C)CN=C(c2ccc3nc(-c4cc(C(C)(C)C)cc(C(C)(C)C)c4O)[nH]c3c2)N1 [Example 88]
[3]
  IC50: 12

## N=C(N)c1ccc2nc(-c3ccc4ccccc4c3)[nH]c2c1 [Example 74]
[4]
  IC50: 120 µM

## N=C(N)c1ccc2nc(-c3ccc(-c4ccccc4)cc3)[nH]c2c1 [Example 2]
[2]
  IC50: 86

## N=C(N)c1ccc2[nH]c(-c3cccc(Oc4ccccc4)c3)nc2c1 [Example 63]
[5]
  IC50: 53 µM

## N=C(N)c1ccc2nc(-c3ccc4oc5ccccc5c4c3)[nH]c2c1 [Example 71]
[4]
  IC50: 17.3 µM

## N=C(N)c1ccc2nc(-c3cc(I)cc(I)c3O)[nH]c2c1 [Example 31]
[2]
  IC50: 30.8

## CC(C)(C)c1cc(-c2nc3ccc(C(=N)N)cc3[nH]2)ccc1O [Example 23]
[2]
  IC50: 22

## CC(C)c1ccc(-c2nc3ccc(C(=N)N)cc3[nH]2)cc1 [Example 4]
[6]
  IC50: 219 µM

## N=C(N)c1ccc2nc(-c3ccc(N(Cc4ccccc4)Cc4ccccc4)cc3)[nH]c2c1 [Example 26]
[2]
  IC50: 17

## N=C(N)c1ccc2[nH]c(-c3ccc(Oc4ccc(Cl)c(Cl)c4)cc3)nc2c1 [Example 60]
[1]
  IC50: 11.4

## COc1c(-c2nc3ccc(C(=N)N)cc3[nH]2)cc(C(C)(C)C)cc1C(C)(C)C [Example 29]
[6]
  IC50: 76 µM

## N=C(N)c1ccc2nc(-c3ccc4c(c3)Cc3ccccc3-4)[nH]c2c1 [Example 72]
[4]
  IC50: 64.3 µM

## N=C(N)c1ccc2nc(-c3cc(I)c(O)c(I)c3)[nH]c2c1 [Example 18]
[2]
  IC50: 254

## N=C(N)c1ccc2nc(-c3ccc(N4CCN(c5ccccc5)CC4)cc3)[nH]c2c1 [Example 81]
[7]
  IC50: 26

## Cn1c(-c2ccc(Oc3ccccc3)cc2)nc2ccc(C(=N)N)cc21 [Example 46]
[1]
  IC50: 44

## N=C(N)c1ccc2nc(-c3cc(C(F)(F)F)cc(C(F)(F)F)c3)[nH]c2c1 [Example 7]
[2]
  IC50: 30.8

## N=C(N)c1ccc2[nH]c(-c3cccc(Oc4cccc(C(F)(F)F)c4)c3)nc2c1 [Example 64]
[5]
  IC50: 48 µM

## N=C(N)c1ccc2nc(-c3ccc(OCc4ccccc4)c(OCc4ccccc4)c3)[nH]c2c1 [Example 16]
[2]
  IC50: 50.7

## N=C(N)c1ccc2nc(-c3cc(OCc4ccccc4)cc(OCc4ccccc4)c3)[nH]c2c1 [Example 6]
[2]
  IC50: 15.9

## N=C(N)c1ccc2nc(-c3ccc4ccccc4c3O)[nH]c2c1 [Example 75]
[4]
  IC50: 127 µM

## CC(C)(C)c1csc(-c2ccc(-c3nc4ccc(C(=N)N)cc4[nH]3)cc2)n1 [Example 43]
[2]
  IC50: 40.2

## N=C(N)c1ccc2nc(-c3ccc(N(c4ccccc4)c4ccccc4)cc3)[nH]c2c1 [Example 5]
[2]
  IC50: 17.4

## N=C(N)c1ccc2[nH]c(-c3ccc(Oc4ccc(N)c(N)c4)cc3)nc2c1 [Example 58]
[1]
  IC50: 31.5

## CC(C)(C)c1cc(-c2nc3ccc(C4=NCCN4)cc3[nH]2)c(O)c(C(C)(C)C)c1 [Example 85]
[3]
  IC50: 4

## N=C(N)c1ccc2nc(-c3cc(Cl)cc(Cl)c3)[nH]c2c1 [Example 19]
[2]
  IC50: 100

## N=C(N)c1ccc2nc(-c3cc4c5c(c3O)CCCN5CCC4)[nH]c2c1 [Example 77]
[4]
  IC50: 18.5 µM

## CC(C)(C)c1ccc(Oc2ccc(-c3nc4ccc(C(=N)N)cc4[nH]3)cc2)cc1 [Example 56]
[1]
  IC50: 66.5

## CC(C)(C)c1cc(-c2nc3ccc(C(=N)N)cc3[nH]2)cc(C(C)(C)C)c1 [Example 20]
[2]
  IC50: 19

## N=C(N)c1ccc2nc(-c3cc4c5c(c3)CCCN5CCC4)[nH]c2c1 [Example 76]
[4]
  IC50: 85 µM

## N=C(N)c1ccc2nc(-c3ccc(OCc4ccccc4)cc3)[nH]c2c1 [Example 15]
[2]
  IC50: 60.8

## c1ccc(Oc2ccc(-c3nc4ccc(C5=NCCN5)cc4[nH]3)cc2)cc1 [Example 83]
[3]
  IC50: 112.4

## CN1c2ccccc2C(C)(C)C12C=Cc1cc(-c3nc4ccc(C(=N)N)cc4[nH]3)ccc1O2 (centres unmarked) [Example 78]
[4]
  IC50: 114 µM

## COc1ccc(Oc2cccc(-c3nc4cc(C(=N)N)ccc4[nH]3)c2)cc1 [Example 70]
[5]
  IC50: 69.2 µM

## N=C(N)c1ccc2nc(-c3ccccc3O)[nH]c2c1 [Example 27]
[6]
  IC50: 465 µM

## N=C(N)c1ccc(Oc2ccc(-c3nc4ccccc4[nH]3)cc2)cc1 [Example 79]
[7]
  IC50: 241

## Cc1ccc(Oc2cccc(-c3nc4cc(C(=N)N)ccc4[nH]3)c2)cc1 [Example 65]
[5]
  IC50: 33 µM

## N=C(N)c1ccc2[nH]c(-c3cccc(Oc4ccc(Cl)cc4)c3)nc2c1 [Example 69]
[5]
  IC50: 28 µM

## N=C(N)c1ccc2[nH]c(-c3cccc(Oc4cc(Cl)cc(Cl)c4)c3)nc2c1 [Example 66]
[5]
  IC50: 32 µM

## CCCCN(CCCC)c1ccc(-c2nc3ccc(C(=N)N)cc3[nH]2)cc1 [Example 14]
[2]
  IC50: 35.5

## N=C(N)c1cc([N+](=O)[O-])c2[nH]c(-c3ccc(Oc4ccccc4)cc3)nc2c1 [Example 61]
[1]
  IC50: 58

## COc1cc(OC)c(-c2nc3ccc(C(=N)N)cc3[nH]2)cc1Br [Example 28]
[2]
  IC50: 66

## COc1ccc(Oc2ccc(-c3nc4ccc(C(=N)N)cc4[nH]3)cc2)cc1 [Example 54]
[1]
  IC50: 17.7

## CC(C)(C)c1cc(-c2nc3ccc(C(=O)O)cc3[nH]2)c(O)c(C(C)(C)C)c1 [Example 89]
Table 6, KinA/Spo0F phosphorylation, read-out: IC50
  IC50: 86 µM

## COc1cc(OC)cc(Oc2ccc(-c3nc4ccc(C(=N)N)cc4[nH]3)cc2)c1 [Example 55]
[1]
  IC50: 59.2

## CC(C)(C)c1cccc(-c2nc3ccc(C(=N)N)cc3[nH]2)c1O [Example 34]
[2]
  IC50: 4

## N=C(N)c1ccc2nc(-c3ccc(C=Cc4ccccc4)cc3)[nH]c2c1 [Example 13]
[2]
  IC50: 21.5

## N=C(N)c1ccc2nc(-c3ccc(Oc4ccc5[nH]cnc5c4)cc3)[nH]c2c1 [Example 80]
[7]
  IC50: 94

## N=C(N)c1ccc2nc(-c3ccc(Oc4ccc(Cl)cc4[N+](=O)[O-])cc3)[nH]c2c1 [Example 49]
[1]
  IC50: 29.2

## N=C(N)c1ccc2nc(-c3ccc(F)cc3)[nH]c2c1 [Example 17]
[2]
  IC50: 480

From patent publication US5942532A, “2-substituted phenyl-benzimidazole antibacterial agents” (Ortho Pharmaceutical Corporation, priority 1997, dated 1999)
